Laboratory results reported in patent publication US12304890B2, “R-type pyridyloxycarboxylic acid, salt and ester derivative thereof, and preparation method therefor, and herbicidal composition and application thereof” (Qingdao Kingagroot Chemical Compound Co., Ltd., priority 2018, dated 2025).

Test system: Monocotyledonous and dicotyledonous weed seeds and main crop seeds
Test: Post-emergence test experiment, other weeds and crops (Table 4, 1000 g a.i./ha)
Assay type: in vivo
Details: 3 weeks in greenhouse, fresh weight inhibition
Protocol: The above described growth inhibition rate is fresh weight inhibition rate.
Post-emergence test experiment: Monocotyledonous and dicotyledonous weed seeds and main crop seeds (i. e. wheat, corn, rice, soybean, cotton, oilseed, millet and sorghum.) were put into a plastic pot loaded with soil. Then covered with 0.5-2 cm soil, the seeds were allowed to grow in good greenhouse environment. The test plants were treated at 2-3 leaf stage 2 weeks after sowing. The test compounds of the invention were dissolved with acetone respectively, then added with tween-80, and using 1.5 liters per hectare of an emulsible concentrate of methyl oleate as a synergist, and diluted by certain amount of water to certain concentration. The solution was sprayed to the plants with a sprayer.

| SMILES | Activity level (growth inhibition rate), Abutilon theophrasti Medic. | Activity level (growth inhibition rate), Galium aparine | Activity level (growth inhibition rate), Monochoria Vaginalis |
| --- | --- | --- | --- |
| CCCCOCCN [Compound 2-21, 2-butoxyethylamine] | 5 (Level 5: the growth inhibition rate is greater than 85%) | 5 (Level 5: the growth inhibition rate is greater than 85%) | 5 (Level 5: the growth inhibition rate is greater than 85%) |
| NC(CO)(CO)CO [Compound 2-23, tri(methylol) aminomethane] | 5 (Level 5: the growth inhibition rate is greater than 85%) | 5 (Level 5: the growth inhibition rate is greater than 85%) | 5 (Level 5: the growth inhibition rate is greater than 85%) |
| CN(CCCN)CCCN [Compound 2-19, N,N-bis[aminopropyl]methylamine] | 5 (Level 5: the growth inhibition rate is greater than 85%) | 5 (Level 5: the growth inhibition rate is greater than 85%) | 5 (Level 5: the growth inhibition rate is greater than 85%) |
| COC(=O)C(C#N)Oc1nc(F)c(Cl)c(N)c1Cl (stereo not drawn) [Compound 2-61] | 5 (Level 5: the growth inhibition rate is greater than 85%) | 5 (Level 5: the growth inhibition rate is greater than 85%) | 5 (Level 5: the growth inhibition rate is greater than 85%) |
| COC(=O)C(Br)Oc1nc(F)c(Cl)c(N)c1Cl (stereo not drawn) [Compound 2-52] | 5 (Level 5: the growth inhibition rate is greater than 85%) | 5 (Level 5: the growth inhibition rate is greater than 85%) | 5 (Level 5: the growth inhibition rate is greater than 85%) |
| CCC(Oc1nc(F)c(Cl)c(N)c1Cl)C(=O)[O-].C[N+](C)(C)Cc1ccccc1 (stereo not drawn) [Compound 2-5] | 5 (Level 5: the growth inhibition rate is greater than 85%) | 5 (Level 5: the growth inhibition rate is greater than 85%) | 5 (Level 5: the growth inhibition rate is greater than 85%) |
| CC[C@@H](Oc1nc(F)c(Cl)c(N)c1Cl)C(=O)SC [Compound 2-33] | 5 (Level 5: the growth inhibition rate is greater than 85%) | 5 (Level 5: the growth inhibition rate is greater than 85%) | 5 (Level 5: the growth inhibition rate is greater than 85%) |
| CCC(Oc1nc(F)c(Cl)c(N)c1Cl)C(=O)S.NCCCN1CCOCC1 (stereo not drawn) [Compound 2-25] | 5 (Level 5: the growth inhibition rate is greater than 85%) | 5 (Level 5: the growth inhibition rate is greater than 85%) | 5 (Level 5: the growth inhibition rate is greater than 85%) |
| CCOC(=O)C(Oc1nc(F)c(Cl)c(N)c1Cl)C1CC1 (stereo not drawn) [Compound 2-383] | 5 (Level 5: the growth inhibition rate is greater than 85%) | 5 (Level 5: the growth inhibition rate is greater than 85%) | 5 (Level 5: the growth inhibition rate is greater than 85%) |
| NC1CCCCCCCCCCC1 [Compound 2-13, cyclododecylamine] | 5 (Level 5: the growth inhibition rate is greater than 85%) | 5 (Level 5: the growth inhibition rate is greater than 85%) | 5 (Level 5: the growth inhibition rate is greater than 85%) |
| COC(=O)[C@H](Oc1nc(F)c(Cl)c(N)c1Cl)c1cccc(Cl)c1 [Compound 2-64] | 5 (Level 5: the growth inhibition rate is greater than 85%) | 5 (Level 5: the growth inhibition rate is greater than 85%) | 5 (Level 5: the growth inhibition rate is greater than 85%) |
| COC(=O)C(Oc1nc(F)c(Cl)c(N)c1Cl)C(F)(F)F (stereo not drawn) [Compound 2-39] | 5 (Level 5: the growth inhibition rate is greater than 85%) | 5 (Level 5: the growth inhibition rate is greater than 85%) | 5 (Level 5: the growth inhibition rate is greater than 85%) |
| C=CCNCC=C.CCC(Oc1nc(F)c(Cl)c(N)c1Cl)C(=O)S (stereo not drawn) [Compound 2-12] | 5 (Level 5: the growth inhibition rate is greater than 85%) | 5 (Level 5: the growth inhibition rate is greater than 85%) | 5 (Level 5: the growth inhibition rate is greater than 85%) |
| COC(=O)C(Oc1nc(F)c(Cl)c(N)c1Cl)SC (stereo not drawn) [Compound 2-57] | 5 (Level 5: the growth inhibition rate is greater than 85%) | 5 (Level 5: the growth inhibition rate is greater than 85%) | 5 (Level 5: the growth inhibition rate is greater than 85%) |
| COC(=O)C(Oc1nc(F)c(Cl)c(N)c1Cl)[N+](=O)[O-] (stereo not drawn) [Compound 2-50] | 5 (Level 5: the growth inhibition rate is greater than 85%) | 5 (Level 5: the growth inhibition rate is greater than 85%) | 5 (Level 5: the growth inhibition rate is greater than 85%) |
| COC(=O)C(Oc1nc(F)c(Cl)c(N)c1Cl)C(C)C (stereo not drawn) [Compound 2-35] | 5 (Level 5: the growth inhibition rate is greater than 85%) | 5 (Level 5: the growth inhibition rate is greater than 85%) | 5 (Level 5: the growth inhibition rate is greater than 85%) |
| COC(=O)C(CO)Oc1nc(F)c(Cl)c(N)c1Cl (stereo not drawn) [Compound 2-49] | 5 (Level 5: the growth inhibition rate is greater than 85%) | 5 (Level 5: the growth inhibition rate is greater than 85%) | 5 (Level 5: the growth inhibition rate is greater than 85%) |
